According to US6355799B1, “Substituted benzene compounds, process for their preparation, and herbicidal and defoliant compositions containing them” (ISK Americas Incorporated, priority 1997, dated 2002):

Experiments:
Type in all cases: in vivo
[1] = test system: johnsongrass (Sorghum halepense, SORHA); assay: Pre-emerge test, greenhouse herbicide activity screening; conditions: pre-emerge, 14 days after application, scale 0-100
How it was run: (§1)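 Plants grown in 10 cm pots of sandy loam mix received acetone-dissolved compounds through a moving flat-fan nozzle. Doses ranged from 15 to 1000 g ai/ha. Pre-emerge pots were seeded one day earlier, post-emerge pots 8–21 days earlier. Fourteen days on, each pot was graded 0–100 for damage.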

[2] = test system: large crabgrass (Digitaria sanguinalis, DIGSA); assay: as above; conditions: pre-emerge, 14 days after application, scale 0-100
How it was run: as §1

[3] = test system: barnyardgrass (Echinochloa crus-galli, ECHCG); assay: as above; conditions: pre-emerge, 14 days after application, scale 0-100
How it was run: as §1

[4] = test system: ivyleaf morningglory (Ipomoea hederacea, IPOHE); assay: as above; conditions: pre-emerge, 14 days after application, scale 0-100
How it was run: as §1

[5] = test system: sicklepod (Cassia obtusifolia, CASOB); assay: as above; conditions: pre-emerge, 14 days after application, scale 0-100
How it was run: as §1

[6] = test system: green foxtail (Setaria viridis, SETVI); assay: as above; conditions: pre-emerge, 14 days after application, scale 0-100
How it was run: as §1

[7] = test system: common ragweed (Ambrosia artemisizfolia L., AMBEL); assay: as above; conditions: pre-emerge, 14 days after application, scale 0-100
How it was run: as §1

[8] = test system: velvetleaf (Abutilon theophrasti, ABUTH); assay: as above; conditions: pre-emerge, 14 days after application, scale 0-100
How it was run: as §1

[9] = test system: lambsquarters (Chenopodium album, CHEAL); assay: as above; conditions: pre-emerge, 14 days after application, scale 0-100
How it was run: as §1

[10] = test system: redroot pigweed (Amaranthus retroflexus, AMARE); assay: as above; conditions: pre-emerge, 14 days after application, scale 0-100
How it was run: as §1

[11] = test system: field corn (Zea mays L., var. Dekalb 535, CORN); assay: Pre-emerge test, crop safety; conditions: pre-emerge, 14 days after application, scale 0-100
How it was run: (§2)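 Compounds in acetone were track-sprayed at 15-1000 g ai/ha (187 l/ha) on sandy loam pots: pre-emerge one day after seeding, post-emerge at 2-3 leaf stage with 0.25% v/v non-ionic surfactant. Phytotoxicity was rated 14 days later on a 0 (no damage) to 100 (complete death) scale.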

[12] = test system: upland rice (Oryza sp., var. Tebonnet, RICE); assay: Pre-emerge test, crop safety; conditions: pre-emerge, 14 days after application, scale 0-100
How it was run: as §2

[13] = test system: field corn (Zea mays L., var. Dekalb 535, CORN); assay: Post-emerge test, crop safety; conditions: post-emerge, 14 days after application, rating scale 0-100
How it was run: (§3)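 Each test used a mechanized track sprayer delivering 187 l/ha of acetone solution at 15–1000 g ai/ha. Post-emerge foliage at 2–3 leaves was treated with added 0.25% v/v non-ionic surfactant and bottom-watered only. Injury was assessed on day 14, where 100 means total kill.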

[14] = test system: upland rice (Oryza sp., var. Tebonnet, RICE); assay: Post-emerge test, crop safety; conditions: post-emerge, 14 days after application, rating scale 0-100
How it was run: as §3

[15] = test system: johnsongrass (Sorghum halepense, SORHA); assay: Post-emerge test, greenhouse herbicide activity screening; conditions: post-emerge, 14 days after application, rating scale 0-100
How it was run: (§4)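 Fourteen days after spraying, crop and weed injury was graded visually from 0, no effect, to 100, every plant dead. Test substances were dissolved in acetone and applied at 15–1000 g ai/ha with a flat-fan nozzle. Application was either pre-emergence, one day after sowing, or post-emergence at the 2–3 leaf stage.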

[16] = test system: large crabgrass (Digitaria sanguinalis, DIGSA); assay: as above; conditions: post-emerge, 14 days after application, rating scale 0-100
How it was run: as §4

[17] = test system: barnyardgrass (Echinochloa crus-galli, ECHCG); assay: as above; conditions: post-emerge, 14 days after application, rating scale 0-100
How it was run: as §4

[18] = test system: ivyleaf morningglory (Ipomoea hederacea, IPOHE); assay: as above; conditions: post-emerge, 14 days after application, rating scale 0-100
How it was run: as §4

[19] = test system: sicklepod (Cassia obtusifolia, CASOB); assay: as above; conditions: post-emerge, 14 days after application, rating scale 0-100
How it was run: as §4

[20] = test system: redroot pigweed (Amaranthus retroflexus, AMARE); assay: as above; conditions: post-emerge, 14 days after application, rating scale 0-100
How it was run: as §4

[21] = test system: green foxtail (Setaria viridis, SETVI); assay: as above; conditions: post-emerge, 14 days after application, rating scale 0-100
How it was run: as §4

[22] = test system: velvetleaf (Abutilon theophrasti, ABUTH); assay: as above; conditions: post-emerge, 14 days after application, rating scale 0-100
How it was run: as §4

[23] = test system: lambsquarters (Chenopodium album, CHEAL); assay: as above; conditions: post-emerge, 14 days after application, rating scale 0-100
How it was run: as §4

Cc1c(Cl)cc(F)c(-n2c(=O)cc(C(F)(F)F)n(C)c2=O)c1NC(=O)C=Cc1ccccc1 [2-123]
80: phytotoxicity rating ECHCG ([3]; 250 g ai/ha) | phytotoxicity rating SETVI ([6]; 63 g ai/ha) | phytotoxicity rating RICE (crop damage) ([12]; 250 g ai/ha)
35: phytotoxicity rating CORN ([13]; 63 g ai/ha)
30: phytotoxicity rating SORHA ([1]; 63 g ai/ha) | phytotoxicity rating RICE (crop damage) ([12]; 63 g ai/ha) | phytotoxicity rating SORHA ([15]; 250 g ai/ha) | phytotoxicity rating DIGSA ([16]; 250 g ai/ha) | phytotoxicity rating SETVI ([21]; 250 g ai/ha)
15: phytotoxicity rating CORN (crop damage) ([11]; 250 g ai/ha)
95: phytotoxicity rating AMBEL ([7]; 63 g ai/ha)
70: phytotoxicity rating SORHA ([1]; 250 g ai/ha) | phytotoxicity rating RICE ([14]; 250 g ai/ha)
40: phytotoxicity rating ECHCG ([3]; 63 g ai/ha) | phytotoxicity rating CORN ([13]; 250 g ai/ha)
0: phytotoxicity rating CORN (crop damage) ([11]; 63 g ai/ha)
90: phytotoxicity rating CASOB ([5]; 250 g ai/ha)
20: phytotoxicity rating ECHCG ([17]; 250 g ai/ha) | phytotoxicity rating SETVI ([21]; 63 g ai/ha)
60: phytotoxicity rating DIGSA ([2]; 63 g ai/ha) | phytotoxicity rating CASOB ([5]; 63 g ai/ha) | phytotoxicity rating RICE ([14]; 63 g ai/ha)
100: phytotoxicity rating DIGSA ([2]; 250 g ai/ha) | phytotoxicity rating IPOHE ([4]; 63 g ai/ha) | phytotoxicity rating IPOHE ([4]; 250 g ai/ha) | phytotoxicity rating SETVI ([6]; 250 g ai/ha) | phytotoxicity rating AMBEL ([7]; 250 g ai/ha) | phytotoxicity rating ABUTH ([8]; 63 g ai/ha) | phytotoxicity rating ABUTH ([8]; 250 g ai/ha) | phytotoxicity rating CHEAL ([9]; 63 g ai/ha) | phytotoxicity rating CHEAL ([9]; 250 g ai/ha) | phytotoxicity rating AMARE ([10]; 63 g ai/ha) | phytotoxicity rating AMARE ([10]; 250 g ai/ha) | phytotoxicity rating IPOHE ([18]; 63 g ai/ha) | phytotoxicity rating IPOHE ([18]; 250 g ai/ha) | phytotoxicity rating CASOB ([19]; 63 g ai/ha) | phytotoxicity rating CASOB ([19]; 250 g ai/ha) | phytotoxicity rating AMARE ([20]; 63 g ai/ha) | phytotoxicity rating AMARE ([20]; 250 g ai/ha) | phytotoxicity rating ABUTH ([22]; 63 g ai/ha) | phytotoxicity rating ABUTH ([22]; 250 g ai/ha) | phytotoxicity rating CHEAL ([23]; 63 g ai/ha) | phytotoxicity rating CHEAL ([23]; 250 g ai/ha)
10: phytotoxicity rating SORHA ([15]; 63 g ai/ha) | phytotoxicity rating DIGSA ([16]; 63 g ai/ha) | phytotoxicity rating ECHCG ([17]; 63 g ai/ha)
